From patent US20090105252A1, “Pyrimidine Derivatives and Their Use in Therapy as well as the Use of Pyrimidine Derivatives in the Manufacture of a Medicament for Prevention and/or Treatment of Alzheimer's Disease” (AstraZeneca AB, priority 2005, published 2009) come the findings set out here.

The structures appear in SMILES notation. Where a name gives a salt, the structure may show the parent alone.

The assay deals with T1, recombinant human GSK3β (Homo sapiens, UniProt P49841).
T1 construct: purchased Dundee University, UK
T1 sequence (P49841 whole entry): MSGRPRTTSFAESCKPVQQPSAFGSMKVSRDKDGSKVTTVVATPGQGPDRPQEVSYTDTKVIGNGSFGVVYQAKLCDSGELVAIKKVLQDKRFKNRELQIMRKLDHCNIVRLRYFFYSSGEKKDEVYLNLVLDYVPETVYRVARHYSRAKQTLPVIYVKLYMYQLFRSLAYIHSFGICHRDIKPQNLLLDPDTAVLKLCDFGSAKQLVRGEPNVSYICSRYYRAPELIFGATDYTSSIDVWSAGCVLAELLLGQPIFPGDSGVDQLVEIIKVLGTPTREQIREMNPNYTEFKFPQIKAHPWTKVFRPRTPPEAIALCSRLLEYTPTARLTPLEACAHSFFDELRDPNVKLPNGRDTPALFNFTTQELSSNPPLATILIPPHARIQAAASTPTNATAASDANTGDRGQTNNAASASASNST
The experiment in a line: GSK3β Scintillation Proximity Assay (ATP competition). It counts as biochemical. Particulars: inhibition constant from ATP competition, 10 inhibitor concentrations in duplicate; ATP 1 μM; Km of ATP 20 μM. Here is the method:
Determination of ATP competition in Scintillation Proximity GSK3β Assay.
GSK3β Scintillation Proximity Assay.
The competition experiments were carried out in duplicate with 10 different concentrations of the inhibitors in clear-bottom microtiter plates (Wallac, Finland). A biotinylated peptide substrate, Biotin-Ala-Ala-Glu-Glu-Leu-Asp-Ser-Arg-Ala-Gly-Ser(PO3H2)-Pro-Gln-Leu (AstraZeneca, Lund), was added at a final concentration of 1 μM in an assay buffer containing 1 mU recombinant human GSK3β (Dundee University, UK), 12 mM morpholinepropanesulfonic acid (MOPS), pH 7.0, 0.3 mM EDTA, 0.01% β-mercaptorethanol, 0.004% Brij 35 (a […] detergent), 0.5% glycerol and 0.5 μg BSA/25 μl. The reaction was initiated by the addition of 0.04 μCi [γ-^33P]ATP (Amersham, UK) and unlabelled ATP at a final concentration of 1 μM and assay volume of 25 μl. After incubation for 20 minutes at room temperature, each reaction was terminated by the addition of 25 μl stop solution containing 5 mM EDTA, 50 μM ATP, 0.1% Triton X-100 and 0.25 mg streptavidin coated Scintillation Proximity Assay (SPA) beads (Amersham, UK). After 6 hours the radioactivity was determined in a liquid scintillation counter (1450 MicroBeta Trilux, Wallac). The inhibition curves were analysed by non-linear regression using GraphPad Prism, USA. The Km value of ATP for GSK30, used to calculate the inhibition constants (Ki) of the various compounds, was 20 μM.
For orientation: In a scintillation proximity assay essentially only radioactivity close to the scintillant gives light.

Regarding `Cc1ncc(-c2nc(Nc3cccc(S(C)(=O)=O)c3)ncc2F)n1C1CCOCC1` [Example 22, 5-Fluoro-N-[3-(methylsulfonyl)phenyl]-4-[2-methyl-1-(tetrahydro-2H-pyran-4-yl)-1H-imidazol-5-yl]pyrimidin-2-amine hydrochloride], the Ki is 22 nM.
Under `Cc1ncc(-c2nc(Nc3ccc(CN4CCN(C)CC4)cc3)ncc2F)n1C` [Example 29, 4-(1,2-Dimethyl-1H-imidazol-5-yl)-5-fluoro-N-{4-[(4-methylpiperazin-1-yl)methyl]phenyl}pyrimidin-2-amine hydrochloride] stands 126 nM; under `Cc1ncc(-c2nc(Nc3ccc(C(=O)N4CCN(C)CC4)cc3)ncc2F)n1C1CCCCC1` [Example 17, 4-(1-Cyclohexyl-2-methyl-1H-imidazol-5-yl)-5-fluoro-N-{4-[(4-methylpiperazin-1-yl)carbonyl]phenyl}pyrimidin-2-amine hydrochloride], 14 nM.
In the case of `COc1cc(Nc2ncc(F)c(-c3cnc(C)n3C)n2)cc(C(F)(F)F)c1` [Example 1, 4-(1,2-Dimethyl-1H-imidazol-5-yl)-5-fluoro-N-[3-methoxy-5-(trifluoromethyl)phenyl]pyrimidin-2-amine], the Ki turned out to be 10 nM.

Broadly, the Ki is the dissociation constant of the complex between target and ligand, obtained from inhibition or displacement.
